Experimental findings from US9409866B2, “Pyridine-2-amides useful as CB2 agonists” (Hoffmann-La Roche Inc., priority 2012, dated 2016) are described below.

The target in one assay is human CB1 receptors (Homo sapiens (Human), UniProt P21554). Put plainly: functional cAMP assay, CHO cells expressing human CB1. It counts as cell-based. A digest of the protocol:
(§1)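 CHO-hCB1/hCB2 cells, KRB + 1 mM IBMX preincubation 30 min 30 °C; cpd 30 min 30 °C; lysis + TR-FRET cAMP detection, 2 h RT; cAMP from std curve; EC50.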
(Cyclic AMP is a second messenger, typically raised through Gs and lowered through Gi signalling.)

Another assay has as its target human CB2 receptors (Homo sapiens (Human), UniProt P34972). The assay can be described thus: functional cAMP assay, CHO cells expressing human CB2. It is filed as cell-based. As to conditions: for pEC50: read-out: Human CB2 EC50; for EC50: Human CB2 EC50 (uM). A digest of the protocol:
as §1

Where [1] appears, read: functional cAMP assay, CHO cells expressing human CB1; read-out: Human CB1 EC50.
Where [2] appears, read: Human CB1 EC50 (uM), functional cAMP assay, CHO cells expressing human CB1.
Where [3] appears, read: read-out: Human CB1 EC50; functional cAMP assay, CHO cells expressing human CB1.

pEC50: −log10 of the molar value. Read-outs that look alike come from different tables or passages of the source.

Chain of human CB1 receptors (P21554 whole entry): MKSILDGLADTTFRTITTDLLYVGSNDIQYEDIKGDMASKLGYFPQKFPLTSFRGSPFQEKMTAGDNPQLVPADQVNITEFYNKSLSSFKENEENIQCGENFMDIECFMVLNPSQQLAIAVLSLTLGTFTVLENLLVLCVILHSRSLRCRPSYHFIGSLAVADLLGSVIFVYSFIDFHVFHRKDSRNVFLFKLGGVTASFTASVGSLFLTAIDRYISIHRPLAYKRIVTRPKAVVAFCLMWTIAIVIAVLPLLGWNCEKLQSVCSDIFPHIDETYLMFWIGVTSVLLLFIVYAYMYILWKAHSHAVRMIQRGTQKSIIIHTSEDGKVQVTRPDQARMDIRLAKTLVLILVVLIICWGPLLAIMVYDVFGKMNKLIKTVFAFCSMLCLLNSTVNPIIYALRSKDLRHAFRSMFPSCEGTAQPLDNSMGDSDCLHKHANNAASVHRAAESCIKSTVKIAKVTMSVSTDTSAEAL
Chain of human CB2 receptors (P34972 whole entry): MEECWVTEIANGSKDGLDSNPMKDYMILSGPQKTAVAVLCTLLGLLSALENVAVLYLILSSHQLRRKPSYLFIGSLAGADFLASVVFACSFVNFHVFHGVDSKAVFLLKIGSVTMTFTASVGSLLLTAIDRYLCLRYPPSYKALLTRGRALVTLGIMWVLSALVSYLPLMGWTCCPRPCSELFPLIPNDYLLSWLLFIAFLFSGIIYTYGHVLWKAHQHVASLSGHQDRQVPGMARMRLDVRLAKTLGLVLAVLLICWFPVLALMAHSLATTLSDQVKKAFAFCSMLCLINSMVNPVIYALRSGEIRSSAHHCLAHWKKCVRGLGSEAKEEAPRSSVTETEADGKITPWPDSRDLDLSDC

As usually defined, the pEC50 is the negative decadic logarithm of the EC50, by convention in mol/L. Consider `O=C(N[C@@H](c1cccnc1)C(F)(F)F)c1cc(Cc2ccc(F)cc2)c(Cl)cn1` [Example 41, 5-Chloro-4-(4-fluoro-benzyl)-pyridine-2-carboxylic acid ((S)-2,2,2-trifluoro-1-pyridin-3-yl-ethyl)-amide], for which the pEC50 is 6.84 on human CB1 receptors (setting [1]) and 8.48 at human CB2 receptors.

Take `CCC(CC)(CO)NC(=O)c1cc(OCC2CC2)c(Cl)cn1` [Example 21, 5-Chloro-4-cyclopropylmethoxy-pyridine-2-carboxylic acid (1-ethyl-1-hydroxymethyl-propyl)-amide]: the pEC50 was under 5.00 on human CB1 receptors (setting [1]) and 7.39 at human CB2 receptors.

As a reminder, the EC50 is the concentration needed to bring the measured effect to its halfway point. Take `Cc1nc([C@](C)(CC2CC2)NC(=O)c2cc(OCC(F)(F)F)c(Cl)cn2)no1` (single isomer, unassigned) [Example 94, 5-Chloro-4-(2,2,2-trifluoro-ethoxy)-pyridine-2-carboxylic acid [2-cyclopropyl-1-methyl-1-(5-methyl-[1,2,4]oxadiazol-3-yl)-ethyl]-amide]: the results for the EC50 on human CB1 receptors (setting [2]) and at human CB2 receptors were over 10 µM and 0.0747 µM, respectively.

On to `Cc1nc(C(C)(NC(=O)c2cc(OCC(F)(F)F)c(C3CC3)cn2)C(=O)N2CC3(COC3)C2)no1` (centres unmarked) [Example 148, 5-cyclopropyl-N-[2-(5-methyl-1,2,4-oxadiazol-3-yl)-1-(2-oxa-6-azaspiro[3.3]heptan-6-yl)-1-oxopropan-2-yl]-4-(2,2,2-trifluoroethoxy)pyridine-2-carboxamide], for which the pEC50 at human CB1 receptors (setting [1]) is under 5.00; on human CB2 receptors, 6.69.

As to `CC(C)CC(C)(NC(=O)c1cc(OCC(F)(F)F)c(C2CC2)cn1)C(N)=O` (centres unmarked) [Example 82, 5-Cyclopropyl-4-(2,2,2-trifluoro-ethoxy)-pyridine-2-carboxylic acid (1-carbamoyl-1,3-dimethyl-butyl)-amide], the pEC50 is under 5.00 on human CB1 receptors (setting [1]) and 7.09 on human CB2 receptors.

Turning to `Cc1nnc(C(NC(=O)c2cc(OCC(F)(F)F)c(C3CC3)cn2)C(C)(C)C)o1` (single isomer, unassigned) [Example 178, 5-cyclopropyl-N-[2,2-dimethyl-1-(5-methyl-1,3,4-oxadiazol-2-yl)propyl]-4-(2,2,2-trifluoroethoxy)pyridine-2-carboxamide], the EC50 at human CB1 receptors (setting [2]) is over 10 µM; on human CB2 receptors, 0.0105 µM.

As to `CC(C)(C)[C@H](CO)NC(=O)c1cc(OCC2CC2)c(Cl)cn1` [Example 29, 5-Chloro-4-cyclopropylmethoxy-pyridine-2-carboxylic acid ((R)-1-hydroxymethyl-2,2-dimethyl-propyl)-amide], the pEC50 on human CB1 receptors (setting [1]) is under 5.00; at human CB2 receptors, 7.19.

On to `O=C(NC(c1ccccn1)C(F)(F)F)c1cc(OCC2CC2)c(C2CC2)cn1` (centres unmarked) [Example 46, 5-Cyclopropyl-4-cyclopropylmethoxy-pyridine-2-carboxylic acid (2,2,2-trifluoro-1-pyridin-2-yl-ethyl)-amide], for which the pEC50 is under 5.00 at human CB1 receptors (setting [1]) and 8.17 on human CB2 receptors.

Consider `CNC(=O)CC(C)(NC(=O)c1cc(O[C@@H](C)C(F)(F)F)c(C2CC2)cn1)C1CC1` (stereo partly drawn) [Example 250, 5-cyclopropyl-N-[2-cyclopropyl-4-(methylamino)-4-oxobutan-2-yl]-4-[(2S)-1,1,1-trifluoropropan-2-yl]oxypyridine-2-carboxamide], for which the pEC50 at human CB1 receptors (setting [1]) is under 5.00; on human CB2 receptors, 7.48.

`CCC(C)(CO)NC(=O)c1cc(OCC2CC2)c(Cl)cn1` (centres unmarked) [Example 26, 5-Chloro-4-cyclopropylmethoxy-pyridine-2-carboxylic acid (1-hydroxymethyl-1-methyl-propyl)-amide]: the pEC50 on human CB1 receptors (setting [1]) is under 5.00; on human CB2 receptors, 7.32.

For the molecule `Cc1nc(C(C)(CC2CC2)NC(=O)c2cc(O[C@@H](C)C(F)(F)F)c(C3(F)COC3)cn2)no1` (stereo partly drawn) [Example 170, N-[1-cyclopropyl-2-(5-methyl-1,2,4-oxadiazol-3-yl)propan-2-yl]-5-(3-fluorooxetan-3-yl)-4-[(2S)-1,1,1-trifluoropropan-2-yl]oxypyridine-2-carboxamide], the pEC50 is under 5.00 at human CB1 receptors (setting [1]) and 7.60 at human CB2 receptors.

Consider `CC(C)C[C@@](C)(CO)NC(=O)c1cc(OCC2CC2)c(Cl)cn1` [Example 27, (−)-5-Chloro-4-cyclopropylmethoxy-pyridine-2-carboxylic acid (1-hydroxymethyl-1,3-dimethyl-butyl)-amide], for which the pEC50 is under 5.00 at human CB1 receptors (setting [1]) and 7.65 at human CB2 receptors.

`Cc1nc([C@@](C)(NC(=O)c2cc(OCC(F)(F)F)c(Cl)cn2)C2CC2)no1` (single isomer, unassigned; enantiomer b) [Example 75, 5-Chloro-4-(2,2,2-trifluoro-ethoxy)-pyridine-2-carboxylic acid [1-cyclopropyl-1-(5-methyl-[1,2,4]oxadiazol-3-yl)-ethyl]-amide (enantiomer B)]: the EC50 was over 10 µM at human CB1 receptors (setting [2]) and 0.11 µM on human CB2 receptors.

For the molecule `Cc1nc(C(C)(CC2CC2)NC(=O)c2cc(O[C@@H](C)C(F)(F)F)c(C3CC3)cn2)no1` (stereo partly drawn) [Example 100, 5-Cyclopropyl-4-((S)-2,2,2-trifluoro-1-methyl-ethoxy)-pyridine-2-carboxylic acid [2-cyclopropyl-1-methyl-1-(5-methyl-[1,2,4]oxadiazol-3-yl)-ethyl]-amide], the pEC50 was under 5.00 on human CB1 receptors (setting [1]) and 9.22 at human CB2 receptors.

On to `Cc1nc(C(C)(CS(C)(=O)=O)NC(=O)c2cc(O[C@@H](C)C(F)(F)F)c(C3CC3)cn2)no1` (stereo partly drawn) [Example 103, 5-Cyclopropyl-4-((S)-2,2,2-trifluoro-1-methyl-ethoxy)-pyridine-2-carboxylic acid [2-methanesulfonyl-1-methyl-1-(5-methyl-[1,2,4]oxadiazol-3-yl)-ethyl]-amide], for which the pEC50 is 6.32 at human CB1 receptors (setting [1]) and 8.47 on human CB2 receptors.

`CNC(=O)CC1(NC(=O)c2cc(OCC(F)(F)F)c(C3CC3)cn2)CS(=O)(=O)C1` [Example 282, 5-cyclopropyl-N-[3-[2-(methylamino)-2-oxoethyl]-1,1-dioxothietan-3-yl]-4-(2,2,2-trifluoroethoxy)pyridine-2-carboxamide]: the pEC50 at human CB1 receptors (setting [1]) is under 5.00; at human CB2 receptors, 6.18.

On to `Cc1nc(C(C)(CC2CC2)NC(=O)c2cc(OCCF)c(C3CC3)cn2)no1` (single isomer, unassigned) [Example 157, 5-cyclopropyl-N-[1-cyclopropyl-2-(5-methyl-1,2,4-oxadiazol-3-yl)propan-2-yl]-4-(2-fluoroethoxy)pyridine-2-carboxamide], for which the pEC50 at human CB1 receptors (setting [3]) was under 5.00. A half-maximal effect on human CB2 receptors (EC50) was put at 0.0036 µM.

`CC(C)(C)C(NC(=O)c1cc(OCC(F)(F)F)c(C2CC2)cn1)C(=O)N1CCC12COC2` (centres unmarked) [Example 198, 5-cyclopropyl-N-[3,3-dimethyl-1-(6-oxa-1-azaspiro[3.3]heptan-1-yl)-1-oxobutan-2-yl]-4-(2,2,2-trifluoroethoxy)pyridine-2-carboxamide]: the results for the pEC50 at human CB1 receptors (setting [1]) and on human CB2 receptors were under 5.00 and 7.44, respectively.

As to `Cc1nc(C(C)(CS(C)(=O)=O)NC(=O)c2cc(OCC(F)F)c(C3CC3)cn2)no1` (single isomer, unassigned) [Example 284, 5-cyclopropyl-4-(2,2-difluoroethoxy)-N-(2-(5-methyl-1,2,4-oxadiazol-3-yl)-1-(methylsulfonyl)propan-2-yl)picolinamide], the pEC50 at human CB1 receptors (setting [3]) was under 5.00. At human CB2 receptors, this molecule returned a 50% effective concentration (EC50) of 0.0453 µM.

Regarding `CNC(=O)CC1(NC(=O)c2cc(OCC(F)(F)F)c(N3CC(F)(F)C3)cn2)COC1` [Example 233, 5-(3,3-difluoroazetidin-1-yl)-N-[3-[2-(methylamino)-2-oxoethyl]oxetan-3-yl]-4-(2,2,2-trifluoroethoxy)pyridine-2-carboxamide], the pEC50 on human CB1 receptors (setting [1]) is under 5.00; on human CB2 receptors, 6.04.

Regarding `CC(CC(N)=O)(NC(=O)c1cc(OCC(F)(F)F)c(N2CC(F)(F)C2)cn1)C1CC1` (single isomer, unassigned) [Example 276, N-[4-amino-2-cyclopropyl-4-oxobutan-2-yl]-5-(3,3-difluoroazetidin-1-yl)-4-(2,2,2-trifluoroethoxy)pyridine-2-carboxamide], the pEC50 at human CB1 receptors (setting [3]) was under 5.00. Moreover, the EC50 at human CB2 receptors worked out at 0.137 µM.

Take `Cc1nc(C(C)(COCc2ccccc2)NC(=O)c2cc(OCC(F)(F)F)c(C3CC3)cn2)no1` (centres unmarked) [Example 112, 5-cyclopropyl-N-[2-(5-methyl-1,2,4-oxadiazol-3-yl)-1-phenylmethoxypropan-2-yl]-4-(2,2,2-trifluoroethoxy)pyridine-2-carboxamide]: the pEC50 at human CB1 receptors (setting [1]) was under 5.00; at human CB2 receptors, 7.36.

As for `Cc1nc(C(C)(CS(C)(=O)=O)NC(=O)c2cc(OCC(F)(F)F)c(C3CC3)cn2)no1` (centres unmarked) [Example 84, 5-Cyclopropyl-4-(2,2,2-trifluoro-ethoxy)-pyridine-2-carboxylic acid [2-methanesulfonyl-1-methyl-1-(5-methyl-[1,2,4]oxadiazol-3-yl)-ethyl]-amide], the pEC50 at human CB1 receptors (setting [1]) was under 5.00; on human CB2 receptors, 7.31.

With `CNC(=O)C(NC(=O)c1cc(O[C@@H](C)C(F)(F)F)c(C2CC2)cn1)C(C)(C)O` (stereo partly drawn) [Example 238, 5-cyclopropyl-N-[3-hydroxy-3-methyl-1-(methylamino)-1-oxobutan-2-yl]-4-[(2S)-1,1,1-trifluoropropan-2-yl]oxypyridine-2-carboxamide], the values for the pEC50 on human CB1 receptors (setting [1]) and on human CB2 receptors were under 5.00 and 7.56, respectively.

For the molecule `CC(CF)Oc1cc(C(=O)NC2(CC(N)=O)CS(=O)(=O)C2)ncc1C1CC1` (single isomer, unassigned) [Example 291, N-[3-(2-amino-2-oxoethyl)-1,1-dioxothietan-3-yl]-5-cyclopropyl-4-[1-fluoropropan-2-yl]oxypyridine-2-carboxamide], the EC50 on human CB1 receptors (setting [2]) is over 10 µM; at human CB2 receptors, 0.0003 µM.
